Reference: PMC5768343, “A natural inhibitor of kidney-type glutaminase: a withanolide from Physalis pubescens with potent anti-tumor activity” (Oncotarget, 2017)

Biological target: T1, catalytic domain of human KGA (cKGA) (Homo sapiens, UniProt O94925)
T1 sequence (O94925 221-553): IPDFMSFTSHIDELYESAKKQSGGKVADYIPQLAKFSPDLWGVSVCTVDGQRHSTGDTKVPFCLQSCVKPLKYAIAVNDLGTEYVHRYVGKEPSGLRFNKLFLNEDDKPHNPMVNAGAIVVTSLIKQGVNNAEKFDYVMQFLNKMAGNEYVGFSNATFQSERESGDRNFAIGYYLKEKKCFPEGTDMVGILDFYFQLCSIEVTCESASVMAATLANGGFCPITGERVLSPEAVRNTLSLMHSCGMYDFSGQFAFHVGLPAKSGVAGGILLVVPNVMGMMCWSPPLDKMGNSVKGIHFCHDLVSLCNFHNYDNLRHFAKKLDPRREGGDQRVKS
Test: In vitro KGA enzyme inhibition assay (GDH-coupled, NADH absorbance 340 nm)
Assay type: biochemical
Method: To validate the finding of the virtual ligand screening, the catalytic domain of human KGA (cKGA) was expressed by recombinant technique. […] Enzyme kinetics has been measured to explore the mode of inhibition.
Specific details were referenced to our previous work. Briefly, The catalytical domain of human KGA (cKGA) encoding amino acids 221–553 was cloned into pET26b vector with C-terminal His tag. The cKGA was then expressed in E.coli BL21 (DE3)-RIL-Condon plus. Cultures were grown in LB media contain 35 mg/L kanamycin at 37°C to OD value in 0.6–0.8, then induced at 16°C with 0.4 mM IPTG for 16 h. Cultures were harvested by centrifugation at 3500 g for 8 minutes. Cell pellets were sonicated in a buffer containing 50 mM Hepes (pH 7.5), 500 mM NaCl, 5mM imidazole, […], 1 mM DTT, 0.1% Triton X-100, and final 1 mM PMSF (Sigma-Aldrich USA). The cKGA were purified by affinity chromatography by Ni-NTA agarose, and further purified by size exclusion chromatography (Superdex 200, GE-health care, USA). The purified cKGA was stored in buffer containing 20 mM Hepes (pH 7.5), 200 mM NaCl, 10% glycerol and 3 mM DTT.
The KGA profiling assays were to evaluate the compound-dependent inhibition of KGA in vitro catalytic assay. Specific details were referenced to our previous work. Briefly, the KGA catalyzed the glutamine into glutamate plus ammonium, and then glutamate plus NAD converted to α-ketoglutarate and NADH by the catalysis of GDH. The elevated absorbance at 340 nm with the form of NADH was recorded using a microplate reader. The enzymatic activity was measured in 100 μL system. Mixed buffer containing 0.15 M K2HPO4, 50 mM Tris-Acetate pH 8.6, 0.1 mg/mL bovine serum albumin (BSA), 0.25 mM EDTA, 1 mM DTT, 4 mM NAD were prepared. Then, 10 mM glutamine, 1 unit of glutamate dehydrogenase (GDH) and inhibitor were added in the mix. Final concentration of 1 μM cKGA was added to initiate the reaction. Generation of NADH was monitored by 340 nm absorbance every minute for 20 minutes at 37°C. The IC50 values were calculated by fitted regression equation using the-log plot (GraphPad Prism). Each value was on behalf of the means ± SD of three independent tests, each with three replicates.

## CO[C@H]1O[C@@H]([C@@H](C)[C@H]2C[C@H](OC(C)=O)[C@H]3[C@@H]4C[C@H]5O[C@]56[C@@H](O)C=CC(=O)[C@]6(C)[C@H]4CC[C@@]32C)C[C@]2(C)O[C@]12C [physapubescin K]
1 μM cKGA, 10 mM glutamine, 37°C
  IC50: 520 ± 60 nM
5 μM compound, after substrate concentration was increased from 10 mM to 40 mM (0 at 10 mM)
  catalytic rate of cKGA: 0.02 ∆OD/min
5 μM compound, substrate concentration 10 mM
  inhibition of the activity of KGA: completely inhibit
Higher concentration, increases in Km for glutamine
  mode of inhibition: competitive
Low concentration, decrease in Vmax, little effect on Km for glutamine
  mode of inhibition: non-competitive
Saturated inhibition assay, 5 μM
  reversibility of inhibition: reversible
